Values of other authors in PMC3010278 (Journal of medicinal chemistry, 2010).

System: QR1
Conditions: in vivo

## C[S+]([O-])CCCCN=C=S (stereo not shown) [Compound 54, sulforaphane]
  QR1 induction in rat mammary gland: induce QR1
